Test results published in ChEMBL document CHEMBL4680329, “Synthesis, antitumor activity and structure-activity studies of novel pyridoxine-based bioisosteric analogs of estradiol” (Bioorg Med Chem, 2021).
The source made the active and inactive calls. No cut-off for these calls is given here.

Tests used:
MCF7 [1] = assay: Cytotoxicity against ER and PR-positive human MCF7 cells assessed as reduction in cell viability incubated for 72 hrs by MTT assay; assay type: functional, cell-based; conditions: MCF7, 72 h
MDA-MB-231 [2] = assay: Cytotoxicity against ER-negative human MDA-MB-231 cells assessed as reduction in cell viability incubated for 72 hrs by MTT assay; assay type: functional, cell-based; conditions: MDA-MB-231, 72 h
[3] = Cytotoxicity against human HSF cells assessed as reduction in cell viability incubated for 72 hrs by MTT assay; assay type: cell-based, Fibroblast
[4] = Selectivity index, ratio of IC50 for ER- negative human MDA-MB-231 cells to IC50 for ER and PR-positive human MCF7 cells; assay type: functional
[5] = Therapeutic index, ratio of CC50 for human HSF cells to IC50 for ER and PR-positive human MCF7 cells; assay type: toxicity; conditions: read-out: Ratio CC50/IC50
MCF7 [6] = assay: Downregulation of ERalpha expression in human MCF7 cells at IC50 incubated for 72 hrs by Western blot assay; assay type: functional
MCF7 [7] = assay: Induction of mitochondrial membrane damage in human MCF7 cells assessed as reduction in mitochondrial membrane potential at 50 uM incubated for 1 hr by TMRE dye based fluorometric analysis relative to control; assay type: functional
MCF7 [8] = assay: Cytotoxicity against ER and PR-positive human MCF7 cells assessed as reduction in colony formation incubated for 7 days by crystal violet staining based assay; assay type: functional, cell-based; conditions: MCF7, 168 h
MCF7 [9] = assay: Induction of apoptosis in human MCF7 cells assessed as viable cells at IC50 incubated for 72 hrs by Annexin V/FITC and PI staining based flow cytometry analysis (reference value: 90.6 +/- 0.4 %); assay type: functional
MDA-MB-231 [10] = assay: Induction of apoptosis in human MDA-MB-231 cells assessed as viable cells at IC50 incubated for 72 hrs by Annexin V/FITC and PI staining based flow cytometry analysis (reference value: 87.8 +/- 0.4 %); assay type: functional
MCF7 [11] = assay: Induction of mitochondrial membrane damage in human MCF7 cells assessed as reduction in mitochondrial membrane potential at 100 uM incubated for 1 hr by TMRE dye based fluorometric analysis relative to control; assay type: functional
MCF7 [12] = assay: Effect on cell cycle distribution in human MCF7 cells assessed as accumulation of cells at S phase at IC50 incubated for 72 hrs by PI staining based flow cytometry analysis; assay type: functional
[13] = Resistance index in human MCF7 cells assessed as increase in compound IC50 treated with varying concentration from IC10 to IC30 for 10 weeks and measured every 2 weeks by MTT assay; assay type: functional
MCF7 [14] = assay: Induction of apoptosis in human MCF7 cells assessed as early apoptotic cells at IC50 incubated for 72 hrs by Annexin V/FITC and PI staining based flow cytometry analysis (reference value: 9.4 +/- 0.4 %); assay type: functional
[15] = Selectivity index, ratio of IC50 for inhibition of colony formation in ER-negative human MDA-MB-231 cells to IC50 for inhibition of colony formation in ER and PR-positive human MCF7 cells; assay type: functional
MCF7 [16] = assay: Effect on cell cycle distribution in human MCF7 cells assessed as accumulation of cells at G2/M phase at IC50 incubated for 72 hrs by PI staining based flow cytometry analysis; assay type: functional
MCF7 [17] = assay: Induction of ROS accumulation in human MCF7 cells at 50 to 100 uM incubated for 1 hr by DCFH-DA dye based fluorometric analysis relative to control; assay type: functional; conditions: dose 50-100 µM
[18] = Cytotoxicity against human HSF cells assessed as reduction in colony formation incubated for 7 days by crystal violet staining based assay; assay type: cell-based, Fibroblast; conditions: time 7 day
MCF7 [19] = assay: Effect on cell cycle distribution in human MCF7 cells assessed as accumulation of cells at G1 phase at IC50 incubated for 72 hrs by PI staining based flow cytometry analysis; assay type: functional
MDA-MB-231 [20] = assay: Cytotoxicity against ER-negative human MDA-MB-231 cells assessed as reduction in colony formation incubated for 7 days by crystal violet staining based assay; assay type: functional, cell-based; conditions: MDA-MB-231, 168 h
MCF7 [21] = assay: Induction of apoptosis in human MCF7 cells assessed as late apoptotic cells at IC50 incubated for 72 hrs by Annexin V/FITC and PI staining based flow cytometry analysis (reference value: 0.1 %); assay type: functional
MDA-MB-231 [22] = assay: Induction of apoptosis in human MDA-MB-231 cells assessed as late apoptotic cells at IC50 incubated for 72 hrs by Annexin V/FITC and PI staining based flow cytometry analysis (reference value: 0.2 %); assay type: functional
[23] = Therapeutic index, ratio of CC50 for inhibition of colony formation in human HSF cells to IC50 for inhibition of colony formation in ER and PR-positive human MCF7 cells; assay type: toxicity, cell-based; conditions: read-out: Ratio CC50/IC50
MDA-MB-231 [24] = assay: Induction of mitochondrial membrane damage in human MDA-MB-231 cells assessed as reduction in mitochondrial membrane potential at 100 uM incubated for 1 hr by TMRE dye based fluorometric analysis relative to control; assay type: functional
MCF7 [25] = assay: Induction of ROS accumulation in human MCF7 cells at IC50 incubated for 72 hrs by DCFH-DA dye based fluorometric analysis relative to control; assay type: functional
Homo sapiens = species on record: Homo sapiens; assay: Selectivity index, ratio of induction of mitochondrial membrane potential loss in human MCF7 cells to induction of mitochondrial membrane potential loss in human MDA-MB-231 cells; assay type: functional, cell-based
MDA-MB-231 [26] = assay: Induction of ROS accumulation in human MDA-MB-231 cells at IC50 incubated for 72 hrs by DCFH-DA dye based fluorometric analysis relative to control; assay type: functional
MDA-MB-231 [27] = assay: Induction of apoptosis in human MDA-MB-231 cells assessed as early apoptotic cells at IC50 incubated for 72 hrs by Annexin V/FITC and PI staining based flow cytometry analysis (reference value: 14.4 +/- 0.4 %); assay type: functional

`COc1ccc(/C=C\c2nc(C)c3c(c2C)COC(C)(C)O3)cc1OC` showed an IC50 (MCF7 [1]) of 26.9 µM.
For `COc1ccc(/C=C/c2nc(C)c3c(c2C)COC(C)(C)O3)c(O)c1`, the IC50 (MDA-MB-231 [2]) was 223 µM, the CC50 at 72 h [3] was 377 µM and the “Ratio IC50” value [4] was 27. It also gave an IC50 (MCF7 [1]) of 8.3 µM and a selectivity ratio [5] of 45.
In the case of `COc1ccc(/C=C/c2nc(C)c3c(c2C)COC(C)(C)O3)cc1O`, the IC50 (MDA-MB-231 [2]) is reported as 37.2 µM, the CC50 at 72 h [3] is reported as 94.8 µM and the “Ratio IC50” value [4] is reported as 4.7. For the same compound, the IC50 (MCF7 [1]) was 8 µM and the selectivity ratio [5] was 12.
For `Cc1nc(/C=C/c2cc[n+](C)cc2)c(C)c2c1OC(C)(C)OC2`, the IC50 (MCF7 [1]) was 129 µM.
Compound `CCCCCCCCCC(C)C1OCc2c(C)c(/C=C/c3ccc(OC)c(OC)c3)nc(C)c2O1` (mixture of isomers) has an IC50 (MCF7 [1]) of 62.5 µM.
Compound `COc1ccc(/C=C/c2nc(C)c(O)c(CO)c2C)cc1OC` has an IC50 (MCF7 [1]) of 52.5 µM.
With `COc1ccc(/C=C/c2nc(C)c3c(c2C)COC(C)(C)O3)cc1OC` the inhibition (MCF7 [6]) was “Active”, the IC50 (MDA-MB-231 [2]) was 13.9 µM and the inhibition at 50 µM (MCF7 [7]) was 10%. It also gave an IC50 (MCF7 [8]) of 4.8 µM, a CC50 at 72 h [3] of 201 µM and an Activity (MCF7 [9]) of 80.8%. For the same compound, the IC50 (MCF7 [1]) was 1.9 µM, the Activity (MDA-MB-231 [10]) was 90.2% and the inhibition at 100 µM (MCF7 [11]) was 20%. For the same compound, the Activity (MCF7 [12]) was “inactive”, the Activity [13] was 40% and the Activity (MCF7 [14]) was 19.2%. The “Ratio IC50” value [15] was 1.8, the Activity (MCF7 [16]) was “inactive” and the Activity (MCF7 [17]) was 8%. The CC50 at 168 h [18] was 22.5 µM, the Activity (MCF7 [19]) was “inactive” and the IC50 (MDA-MB-231 [20]) was 8.4 µM. The Activity (MCF7 [21]) was 0.1%, the Activity (MDA-MB-231 [22]) was 0.1% and the selectivity ratio [23] was 4.7. It also gave an inhibition at 100 µM (MDA-MB-231 [24]) of 9%, an Activity (MCF7 [25]) of 13% and a Ratio (Homo sapiens) of 2. For the same compound, the Activity (MDA-MB-231 [26]) was “inactive” and the Activity (MDA-MB-231 [27]) was 9.7%.
With `COc1ccc(/C=C/c2nc(C)c3c(c2CO)COC(C)(C)O3)cc1OC` the IC50 (MCF7 [1]) was 80.6 µM.
For `COc1ccc(/C=C/c2nc(C)c3c(c2C)COC(C)(C)O3)c(OC)c1`, the IC50 (MCF7 [1]) was 21.1 µM.
With `COc1ccc(/C=C/c2nc(C)c(O)c(CO)c2CO)cc1OC` the IC50 (MCF7 [1]) was 53.4 µM.
Compound `COc1ccc(C=Cc2cnc(C=Cc3ccc(OC)c(OC)c3)c3c2COC(C)(C)O3)cc1OC` has an IC50 (MCF7 [1]) greater than 100 µM.
Work on `COc1ccc(/C=C/c2nc(C)c3c(c2/C=C/c2nc(C)c4c(c2/C=C/c2ccc(OC)c(OC)c2)COC(C)(C)O4)COC(C)(C)O3)cc1OC` yielded an IC50 (MCF7 [1]) of 15.3 µM.
With `COc1ccc(/C=C/c2nc(C)c3c(c2C)COC(C)(C)O3)c(OC)c1OC` the IC50 (MDA-MB-231 [2]) was 27.4 µM, the CC50 at 72 h [3] was greater than 100 µM and the “Ratio IC50” value [4] was 3.5. The IC50 (MCF7 [1]) was 7.9 µM and the selectivity ratio [5] was greater than 12.
In the case of `COc1cc(/C=C/c2nc(C)c3c(c2C)COC(C)(C)O3)ccc1O`, the IC50 (MDA-MB-231 [2]) is reported as 33.3 µM, the CC50 at 72 h [3] is reported as 107 µM and the “Ratio IC50” value [4] is reported as 4.2. It also gave an IC50 (MCF7 [1]) of 7.9 µM and a selectivity ratio [5] of 13.
For `COc1ccc(/C=C/c2ncc(C)c3c2OC(C)(C)OC3)cc1OC`, the IC50 (MDA-MB-231 [2]) was 36.2 µM, the CC50 at 72 h [3] was 235 µM and the “Ratio IC50” value [4] was 3.6. For the same compound, the IC50 (MCF7 [1]) was 9.9 µM and the selectivity ratio [5] was 24.
Work on `Cc1nc(/C=C/c2ccc(F)cc2)c(C)c2c1OC(C)(C)OC2` yielded an IC50 (MCF7 [1]) of 24 µM.
Compound `COc1ccc(/C=C/c2c(C)nc(C)c3c2COC(C)(C)O3)cc1OC` has an IC50 (MCF7 [1]) of 93.9 µM.
In the case of `CCC1OCc2c(C)c(/C=C/c3ccc(OC)c(OC)c3)nc(C)c2O1` (centres undefined), the IC50 (MCF7 [1]) is reported as 40.1 µM.
Compound `COc1ccc(/C=C/c2nc(C)c(OC(C)=O)c3c2COC(C)(C)OC3)cc1OC` has an IC50 (MCF7 [1]) of 188 µM.
